Where two headings read alike, the source gives them in different places.
Assay: Fuel solubility: blends with commercial diesel
Format: physicochemical
Excerpt: Fuel solubility is a primary concern for diesel fuel applications. Not all highly polar oxygenates have good solubility in the current commercial diesel fuels.

Compound | miscibility with commercial diesel | miscibility with commercial diesel (5 vol % blend with commercial diesel) | miscibility with commercial diesel (25 vol % blend with commercial diesel) | miscibility with commercial diesel (40 vol % blend with commercial diesel)
CCCCCCCCOCc1ccc(C=O)o1 [OMF, 5-(octyloxymethyl)furfural] | completely miscible |  |  | 
CCOCc1ccc(C=O)o1 [EMF, ethoxymethylfurfural] |  | completely miscible | phase separation occurs | phase separation occurs

Source: US20100218415A1, “HYDROXYMETHYLFURFURAL ETHERS FROM SUGARS AND HIGHER ALCOHOLS” (FURANIX TECHNOLOGIES B.V., priority 2007, published 2010)
